Bounds are passed on as bounds.

The values below come from US20190375708A1 (VenatoRx Pharmaceuticals, Inc., priority 2018, published 2019).

Series [1] has as its system HBV replication in HepAD38 cells. Description: Anti-HBV replication assay in HepAD38 cells (QPCR of extracellular HBV DNA). Conditions: Hepatitis B virus, 168 h, 7 days incubation, extracellular HBV DNA by QPCR, read-out: Anti-HBV EC50. It counts as cell-based, HBV (genotype D, serotype ayw). The procedure, abridged:
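Compounds (1 log10 serial dilutions, […]) were left 7 days on tetracycline-free HepAD38 cultures, a HepG2 line with tet-controlled HBV genotype D. EC50 came from 4-parameter regression of percent inhibition versus vehicle, using supernatant HBV DNA copies/mL measured by QPCR.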

A short description of series [2]: In vitro cytotoxicity assay (MTT cell viability) in HepG2 cells. It counts as cell-based, human. Conditions: human. The procedure, abridged:
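HepG2 seeded overnight, then 7-day compound exposure (30 μM–1.0 nM, half-log steps), 37 °C. MTT 3-4 h, DMSO solubilization, A492. % of vehicle → CC50, 4-PL fit.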

The term EC50 denotes the midpoint of the concentration-response curve. For orientation: CC50 means the concentration giving 50% cytotoxicity. For `Cc1c(C(=O)Nc2ccnc(F)c2)c(C)n(C)c1C(=O)C(=O)NC1CCSCC1` [Example 272, N-(2-fluoropyridin-4-yl)-1,2,4-trimethyl-5-(2-oxo-2-((tetrahydro-2H-thiopyran-4-yl)amino)acetyl)-1H-pyrrole-3-carboxamide], in series [1], the EC50 was below 0.05 µM. In series [2], this compound gave a CC50 at 7 days above 30 µM.
The corresponding values for `Cc1cc(NC(=O)c2c(C)c(C(=O)C(=O)N[C@]3(C)CC[C@@H](O)CC3)n(C)c2C)ccc1F` [Example 273, N-(4-fluoro-3-methylphenyl)-5-(2-(((1r,4r)-4-hydroxy-1-methylcyclohexyl)amino)-2-oxoacetyl)-1,2,4-trimethyl-1H-pyrrole-3-carboxamide] are below 0.05 µM and above 30 µM.
Regarding `Cc1c(C(=O)Nc2ccnc(F)c2)c(C)n(C)c1C(=O)C(=O)N[C@@H](C)C(F)(F)F` [Example 274, (S)-N-(2-fluoropyridin-4-yl)-1,2,4-trimethyl-5-(2-oxo-2-((1,1,1-trifluoropropan-2-yl)amino)acetyl)-1H-pyrrole-3-carboxamide], the EC50 in series [1] is below 0.05 µM. The compound also showed a CC50 at 7 days in series [2] above 30 µM.
Turning to `C#CCNC(=O)C(=O)c1c(C)c(C(=O)Nc2ccc(F)c(C)c2)c(C)n1C` [Example 275, N-(4-fluoro-3-methylphenyl)-1,2,4-trimethyl-5-(2-oxo-2-(prop-2-yn-1-ylamino)acetyl)-1H-pyrrole-3-carboxamide], the EC50 in series [1] was below 0.05 µM. The CC50 at 7 days in series [2] is above 30 µM.
`Cc1cc(NC(=O)c2c(C)c(C(=O)C(=O)Nc3ccccn3)n(C)c2C)ccc1F` [Example 276, N-(4-fluoro-3-methylphenyl)-1,2,4-trimethyl-5-(2-oxo-2-(pyridin-2-ylamino)acetyl)-1H-pyrrole-3-carboxamide]: the EC50 in series [1] is below 0.05 µM. Further, in series [2], the CC50 at 7 days was above 30 µM.
As for `Cc1cc(NC(=O)c2c(C)c(C(=O)C(=O)NC3(C)CCOCC3)n(C)c2C)ccc1F` [Example 277, N-(4-fluoro-3-methylphenyl)-1,2,4-trimethyl-5-(2-((4-methyltetrahydro-2H-pyran-4-yl)amino)-2-oxoacetyl)-1H-pyrrole-3-carboxamide], the EC50 in series [1] is below 0.05 µM. For the same compound, the CC50 at 7 days in series [2] is above 30 µM.
In the same order, the values of `Cc1cc(NC(=O)c2c(C)c(C(=O)C(=O)NC3(C(F)(F)F)CCOC3)n(C)c2C)ccc1F` (stereo not shown) [Example 278, N-(4-fluoro-3-methylphenyl)-1,2,4-trimethyl-5-(2-oxo2-((3-(trifluoromethyl)tetrahydrofuran-3-yl)amino)acetyl)-1H-pyrrole-3-carboxamide] are below 0.05 µM and above 30 µM.
In the same order, the values of `Cc1cc(NC(=O)c2c(C)c(C(=O)C(=O)N[C@H]3CC[C@@H](C(=O)O)CC3)n(C)c2C)ccc1F` [Example 279, (1s,4s)-4-(2-(4-((4-fluoro-3-methylphenyl)carbamoyl)-1,3,5-trimethyl-1H-pyrrol-2-yl)-2-oxoacetamido)cyclohexane-1-carboxylic acid] are 0.05 to 0.499 µM and above 30 µM.
The corresponding values for `Cc1cc(NC(=O)c2c(C)c(C(=O)C(=O)NC3CCOCC3(C)C)n(C)c2C)ccc1F` (stereo not shown) [Example 281] are below 0.05 µM and 5 to 30 µM.
As for `Cc1cc(NC(=O)c2c(C)c(C(=O)C(=O)N[C@]3(C(F)(F)F)CC[C@H](O)CC3)n(C)c2C)ccc1F` [Example 282, N-(4-fluoro-3-methylphenyl)-5-(2-(((1s,4s)-4-hydroxy-1-(trifluoromethyl)cyclohexyl)amino)-2-oxoacetyl)-1,2,4-trimethyl-1H-pyrrole-3-carboxamide], the EC50 in series [1] is below 0.05 µM. For the same compound, the CC50 at 7 days in series [2] was above 30 µM.
Take `Cc1cc(NC(=O)c2c(C)c(C(=O)C(=O)N[C@H]3CC[C@@H](C#N)CC3)n(C)c2C)ccc1F` [Example 283]: the EC50 in series [1] was below 0.05 µM. This compound gave a CC50 at 7 days in series [2] of 5 to 30 µM.
The corresponding values for `CCn1c(C)c(C(=O)Nc2ccc(F)c(C)c2)c(C)c1C(=O)C(=O)N[C@H]1CC[C@@H](O)CC1` [Example 284, 1-ethyl-N-(4-fluoro-3-methylphenyl)-5-(2-(((1s,4s)-4-hydroxycyclohexyl)amino)-2-oxoacetyl)-2,4-dimethyl-1H-pyrrole-3-carboxamide] are below 0.05 µM and above 30 µM.
The corresponding values for `CCn1c(C)c(C(=O)Nc2ccc(F)c(C)c2)c(C)c1C(=O)C(=O)NC1(C(F)(F)F)CCOCC1` [Example 285, 1-ethyl-N-(4-fluoro-3-methylphenyl)-2,4-dimethyl-5-(2-oxo-2-((4-(trifluoromethyl)tetrahydro-2H-pyran-4-yl)amino)acetyl)-1H-pyrrole-3-carboxamide] are below 0.05 µM and above 30 µM.
Take `Cc1cc(NC(=O)c2c(C)c(C(=O)C(=O)NC3CCNC(=O)C3)n(C)c2C)ccc1F` (stereo not shown) [Example 286, N-(4-fluoro-3-methylphenyl)-1,2,4-trimethyl-5-(2-oxo-2-((2-oxopiperidin-4-yl)amino)acetyl)-1H-pyrrole-3-carboxamide]: the EC50 in series [1] was below 0.05 µM. In addition, the CC50 at 7 days in series [2] is above 30 µM.
Turning to `Cc1cc(NC(=O)c2c(C)c(C(=O)C(=O)N[C@@H]3CCC[C@@H](O)C3)n(C)c2C)ccc1F` [Example 287, N-(4-fluoro-3-methylphenyl)-5-(2-(((1R,3R)-3-hydroxycyclohexyl)amino)-2-oxoacetyl)-1,2,4-trimethyl-1H-pyrrole-3-carboxamide], the EC50 in series [1] is below 0.05 µM. In addition, the CC50 at 7 days in series [2] is above 30 µM.
For the compound `Cc1cc(NC(=O)c2c(C)c(C(=O)C(=O)NC3(C(F)(F)F)CC(O)C3)n(C)c2C)ccc1F` (stereo not shown) [Example 288, N-(4-fluoro-3-methylphenyl)-5-(2-((3-hydroxy-1-(trifluoromethyl)cyclobutyl)amino)-2-oxoacetyl)-1,2,4-trimethyl-1H-pyrrole-3-carboxamide], the EC50 in series [1] is below 0.05 µM. This compound yielded a CC50 at 7 days in series [2] above 30 µM.
For the compound `Cc1cc(NC(=O)c2c(C)c(C(=O)C(=O)N[C@H](C)C(F)(F)F)n(C)c2C)ccc1F` [Example 289, (R)-N-(4-fluoro-3-methylphenyl)-1,2,4-trimethyl-5-(2-oxo-2-((1,1,1-trifluoropropan-2-yl)amino)acetyl)-1H-pyrrole-3-carboxamide], the EC50 in series [1] was below 0.05 µM. Also, the CC50 at 7 days in series [2] lay in the range of 5 to 30 µM.
In the same order, the values of `Cc1cc(NC(=O)c2c(C)c(C(=O)C(=O)NC(C)CN3CCOCC3)n(C)c2C)ccc1F` (stereo not shown) [Example 290, N-(4-fluoro-3-methylphenyl)-1,2,4-trimethyl-5-(2-((1-morpholinopropan-2-yl)amino)-2-oxoacetyl)-1H-pyrrole-3-carboxamide] are below 0.05 µM and above 30 µM.
The corresponding values for `Cc1cc(NC(=O)c2c(C)c(C(=O)C(=O)NC(C)(C)CN3CCOCC3)n(C)c2C)ccc1F` [Example 291, N-(4-fluoro-3-methylphenyl)-1,2,4-trimethyl-5-(2-((2-methyl-1-morpholinopropan-2-yl)amino)-2-oxoacetyl)-1H-pyrrole-3-carboxamide] are below 0.05 µM and above 30 µM.
In the same order, the values of `Cc1cc(NC(=O)c2c(C)c(C(=O)C(=O)NCCN3CCC(O)CC3)n(C)c2C)ccc1F` [Example 292, N-(4-fluoro-3-methylphenyl)-5-(2-((2-(4-hydroxypiperidin-1-yl)ethyl)amino)-2-oxoacetyl)-1,2,4-trimethyl-1H-pyrrole-3-carboxamide] are 0.05 to 0.499 µM and above 30 µM.
With `Cc1c(C(=O)Nc2ccc(F)c(F)c2)c(C)n(C)c1C(=O)C(=O)Nc1ccc(F)c(F)c1` [Example 293, N-(3,4-difluorophenyl)-5-(2-((3,4-difluorophenyl)amino)-2-oxoacetyl)-1,2,4-trimethyl-1H-pyrrole-3-carboxamide], the EC50 in series [1] is below 0.05 µM. The compound also showed a CC50 at 7 days in series [2] of 5 to 30 µM.
In the same order, the values of `Cc1c(C(=O)Nc2ccc(F)c(F)c2)c(C)n(C)c1C(=O)C(=O)Nc1ccccn1` [Example 294, N-(3,4-difluorophenyl)-1,2,4-trimethyl-5-(2-oxo-2-(pyridin-2-ylamino)acetyl)-1H-pyrrole-3-carboxamide] are 0.5 to 1 µM and above 30 µM.
In the same order, the values of `Cc1c(C(=O)Nc2ccc(F)c(F)c2)c(C)n(C)c1C(=O)C(=O)Nc1ccc(F)cn1` [Example 295, N-(3,4-difluorophenyl)-5-(2-((5-fluoropyridin-2-yl)amino)-2-oxoacetyl)-1,2,4-trimethyl-1H-pyrrole-3-carboxamide] are below 0.05 µM and 5 to 30 µM.
In the same order, the values of `Cc1c(C(=O)Nc2ccc(F)c(F)c2)c(C)n(C)c1C(=O)C(=O)Nc1cccnc1` [Example 296, N-(3,4-difluorophenyl)-1,2,4-trimethyl-5-(2-oxo-2-(pyridin-3-ylamino)acetyl)-1H-pyrrole-3-carboxamide] are below 0.05 µM and above 30 µM.
With `Cc1c(C(=O)Nc2ccc(F)c(F)c2)c(C)n(C)c1C(=O)C(=O)Nc1ccc(F)nc1` [Example 297, N-(3,4-difluorophenyl)-5-(2-((6-fluoropyridin-3-yl)amino)-2-oxoacetyl)-1,2,4-trimethyl-1H-pyrrole-3-carboxamide], the EC50 in series [1] is below 0.05 µM. Also, the CC50 at 7 days in series [2] lay in the range of 5 to 30 µM.
In the case of `Cc1c(C(=O)Nc2ccc(F)c(F)c2)c(C)n(C)c1C(=O)C(=O)NC1CCC(F)(F)CC1` [Example 298, 5-(2-((4,4-difluorocyclohexyl)amino)-2-oxoacetyl)-N-(3,4-difluorophenyl)-1,2,4-trimethyl-1H-pyrrole-3-carboxamide], in series [1], the EC50 is below 0.05 µM. In addition, in series [2], the CC50 at 7 days is above 30 µM.
